Conditions: human gut metagenome, 24 h, 2 µM
Note: call rule not given here.

Bacterial Biotransformation	SMILES
Compound NOT metabolized	CN1C(C(=O)Nc2ccccn2)=C(O)c2sccc2S1(=O)=O [TENOXICAM]
Compound metabolized	NC(CO)(CO)CO.O=C(c1ccccc1)c1ccc2n1CCC2C(=O)O (stereo not given) [KETOROLAC TROMETHAMINE]
Compound NOT metabolized	O=C1[C@H](CC[C@H](O)c2ccc(F)cc2)[C@@H](c2ccc(O)cc2)N1c1ccc(F)cc1 [EZETIMIBE]
Compound metabolized	CCN(CC)CCNC(C(=O)OCCC(C)C)c1ccccc1.Cl.Cl (stereo not given)

Experiment: (§1) The drug is tested on WLS-220 corresponding to human gut metagenome with ENA study accession number: PRJEB37062 and ENA sample accession number: ERS12561769 for biotransformation under anaerobic condition. The drug concentrations were measured over 9 timepoints collected between 0 and 24 hours of incubation by liquid-chromatography-coupled mass spectrometry (LC–MS)
Conditions: 2 µM

Bacterial Biotransformation	SMILES
Compound NOT metabolized	CN1C(C(=O)Nc2ccccn2)=C(O)c2sccc2S1(=O)=O [TENOXICAM]
Compound metabolized	NC(CO)(CO)CO.O=C(c1ccccc1)c1ccc2n1CCC2C(=O)O (stereo not given) [KETOROLAC TROMETHAMINE]
Compound metabolized	O=C1[C@H](CC[C@H](O)c2ccc(F)cc2)[C@@H](c2ccc(O)cc2)N1c1ccc(F)cc1 [EZETIMIBE]
Compound NOT metabolized	CCN(CC)CCNC(C(=O)OCCC(C)C)c1ccccc1.Cl.Cl (stereo not given)

Conditions: human gut metagenome, 24 h, 2 µM
Remark: another data set of the same source

Bacterial Biotransformation	SMILES
Compound NOT metabolized	CN1C(C(=O)Nc2ccccn2)=C(O)c2sccc2S1(=O)=O [TENOXICAM]
Compound metabolized	NC(CO)(CO)CO.O=C(c1ccccc1)c1ccc2n1CCC2C(=O)O (stereo not given) [KETOROLAC TROMETHAMINE]
Compound metabolized	O=C1[C@H](CC[C@H](O)c2ccc(F)cc2)[C@@H](c2ccc(O)cc2)N1c1ccc(F)cc1 [EZETIMIBE]
Compound metabolized	CCN(CC)CCNC(C(=O)OCCC(C)C)c1ccccc1.Cl.Cl (stereo not given)

Experiment: as §1, with “Z-022” for “WLS-220”, “mouse” for “human”, “ERS12561821” for “ERS12561769”
Conditions: 2 µM

Bacterial Biotransformation	SMILES
Compound metabolized	CN1C(C(=O)Nc2ccccn2)=C(O)c2sccc2S1(=O)=O [TENOXICAM]
Compound metabolized	NC(CO)(CO)CO.O=C(c1ccccc1)c1ccc2n1CCC2C(=O)O (stereo not given) [KETOROLAC TROMETHAMINE]
Compound NOT metabolized	O=C1[C@H](CC[C@H](O)c2ccc(F)cc2)[C@@H](c2ccc(O)cc2)N1c1ccc(F)cc1 [EZETIMIBE]
Compound metabolized	CCN(CC)CCNC(C(=O)OCCC(C)C)c1ccccc1.Cl.Cl (stereo not given)

Conditions: human gut metagenome, 24 h, 2 µM
Remark: another data set of the same source

Bacterial Biotransformation	SMILES
Compound NOT metabolized	CN1C(C(=O)Nc2ccccn2)=C(O)c2sccc2S1(=O)=O [TENOXICAM]
Compound metabolized	NC(CO)(CO)CO.O=C(c1ccccc1)c1ccc2n1CCC2C(=O)O (stereo not given) [KETOROLAC TROMETHAMINE]
Compound metabolized	O=C1[C@H](CC[C@H](O)c2ccc(F)cc2)[C@@H](c2ccc(O)cc2)N1c1ccc(F)cc1 [EZETIMIBE]
Compound metabolized	CCN(CC)CCNC(C(=O)OCCC(C)C)c1ccccc1.Cl.Cl (stereo not given)

Experiment: as §1, with “Z-029” for “WLS-220”, “rat” for “human”, “ERS12561828” for “ERS12561769”
Conditions: 2 µM

Bacterial Biotransformation	SMILES
Compound NOT metabolized	CN1C(C(=O)Nc2ccccn2)=C(O)c2sccc2S1(=O)=O [TENOXICAM]
Compound metabolized	NC(CO)(CO)CO.O=C(c1ccccc1)c1ccc2n1CCC2C(=O)O (stereo not given) [KETOROLAC TROMETHAMINE]
Compound NOT metabolized	O=C1[C@H](CC[C@H](O)c2ccc(F)cc2)[C@@H](c2ccc(O)cc2)N1c1ccc(F)cc1 [EZETIMIBE]
Compound NOT metabolized	CCN(CC)CCNC(C(=O)OCCC(C)C)c1ccccc1.Cl.Cl (stereo not given)

Conditions: human gut metagenome, 24 h, 2 µM
Remark: another data set of the same source

Bacterial Biotransformation	SMILES
Compound NOT metabolized	CN1C(C(=O)Nc2ccccn2)=C(O)c2sccc2S1(=O)=O [TENOXICAM]
Compound metabolized	NC(CO)(CO)CO.O=C(c1ccccc1)c1ccc2n1CCC2C(=O)O (stereo not given) [KETOROLAC TROMETHAMINE]
Compound NOT metabolized	O=C1[C@H](CC[C@H](O)c2ccc(F)cc2)[C@@H](c2ccc(O)cc2)N1c1ccc(F)cc1 [EZETIMIBE]
Compound metabolized	CCN(CC)CCNC(C(=O)OCCC(C)C)c1ccccc1.Cl.Cl (stereo not given)

Conditions: human gut metagenome, 24 h, 2 µM
Remark: another data set of the same source

Bacterial Biotransformation	SMILES
Compound NOT metabolized	CN1C(C(=O)Nc2ccccn2)=C(O)c2sccc2S1(=O)=O [TENOXICAM]
Compound metabolized	NC(CO)(CO)CO.O=C(c1ccccc1)c1ccc2n1CCC2C(=O)O (stereo not given) [KETOROLAC TROMETHAMINE]
Compound NOT metabolized	O=C1[C@H](CC[C@H](O)c2ccc(F)cc2)[C@@H](c2ccc(O)cc2)N1c1ccc(F)cc1 [EZETIMIBE]
Compound metabolized	CCN(CC)CCNC(C(=O)OCCC(C)C)c1ccccc1.Cl.Cl (stereo not given)

Experiment: as §1, with “WLS-052” for “WLS-220”, “ERS12561747” for “ERS12561769”
Conditions: 2 µM

Bacterial Biotransformation	SMILES
Compound NOT metabolized	CN1C(C(=O)Nc2ccccn2)=C(O)c2sccc2S1(=O)=O [TENOXICAM]
Compound metabolized	NC(CO)(CO)CO.O=C(c1ccccc1)c1ccc2n1CCC2C(=O)O (stereo not given) [KETOROLAC TROMETHAMINE]
Compound NOT metabolized	O=C1[C@H](CC[C@H](O)c2ccc(F)cc2)[C@@H](c2ccc(O)cc2)N1c1ccc(F)cc1 [EZETIMIBE]
Compound NOT metabolized	CCN(CC)CCNC(C(=O)OCCC(C)C)c1ccccc1.Cl.Cl (stereo not given)

Experiment: as §1, with “WLS-069” for “WLS-220”, “ERS12561748” for “ERS12561769”
Conditions: 2 µM

Bacterial Biotransformation	SMILES
Compound NOT metabolized	CN1C(C(=O)Nc2ccccn2)=C(O)c2sccc2S1(=O)=O [TENOXICAM]
Compound metabolized	NC(CO)(CO)CO.O=C(c1ccccc1)c1ccc2n1CCC2C(=O)O (stereo not given) [KETOROLAC TROMETHAMINE]
Compound metabolized	O=C1[C@H](CC[C@H](O)c2ccc(F)cc2)[C@@H](c2ccc(O)cc2)N1c1ccc(F)cc1 [EZETIMIBE]
Compound metabolized	CCN(CC)CCNC(C(=O)OCCC(C)C)c1ccccc1.Cl.Cl (stereo not given)

Conditions: human gut metagenome, 24 h, 2 µM
Remark: another data set of the same source

Bacterial Biotransformation	SMILES
Compound metabolized	CN1C(C(=O)Nc2ccccn2)=C(O)c2sccc2S1(=O)=O [TENOXICAM]
Compound metabolized	NC(CO)(CO)CO.O=C(c1ccccc1)c1ccc2n1CCC2C(=O)O (stereo not given) [KETOROLAC TROMETHAMINE]
Compound NOT metabolized	O=C1[C@H](CC[C@H](O)c2ccc(F)cc2)[C@@H](c2ccc(O)cc2)N1c1ccc(F)cc1 [EZETIMIBE]
Compound metabolized	CCN(CC)CCNC(C(=O)OCCC(C)C)c1ccccc1.Cl.Cl (stereo not given)

Experiment: as §1, with “Z-006” for “WLS-220”, “mouse” for “human”, “ERS12561806” for “ERS12561769”
Conditions: 2 µM

Bacterial Biotransformation	SMILES
Compound NOT metabolized	CN1C(C(=O)Nc2ccccn2)=C(O)c2sccc2S1(=O)=O [TENOXICAM]
Compound NOT metabolized	NC(CO)(CO)CO.O=C(c1ccccc1)c1ccc2n1CCC2C(=O)O (stereo not given) [KETOROLAC TROMETHAMINE]
Compound NOT metabolized	O=C1[C@H](CC[C@H](O)c2ccc(F)cc2)[C@@H](c2ccc(O)cc2)N1c1ccc(F)cc1 [EZETIMIBE]
Compound NOT metabolized	CCN(CC)CCNC(C(=O)OCCC(C)C)c1ccccc1.Cl.Cl (stereo not given)

Experiment: as §1, with “Z-005” for “WLS-220”, “to” for “to human gut”, “ERS12561805” for “ERS12561769”
Conditions: 2 µM

Bacterial Biotransformation	SMILES
Compound NOT metabolized	CN1C(C(=O)Nc2ccccn2)=C(O)c2sccc2S1(=O)=O [TENOXICAM]
Compound metabolized	NC(CO)(CO)CO.O=C(c1ccccc1)c1ccc2n1CCC2C(=O)O (stereo not given) [KETOROLAC TROMETHAMINE]
Compound NOT metabolized	O=C1[C@H](CC[C@H](O)c2ccc(F)cc2)[C@@H](c2ccc(O)cc2)N1c1ccc(F)cc1 [EZETIMIBE]
Compound metabolized	CCN(CC)CCNC(C(=O)OCCC(C)C)c1ccccc1.Cl.Cl (stereo not given)

Experiment: as §1, with “WLS-350” for “WLS-220”, “ERS12561789” for “ERS12561769”
Conditions: 2 µM

Bacterial Biotransformation	SMILES
Compound metabolized	CN1C(C(=O)Nc2ccccn2)=C(O)c2sccc2S1(=O)=O [TENOXICAM]
Compound metabolized	NC(CO)(CO)CO.O=C(c1ccccc1)c1ccc2n1CCC2C(=O)O (stereo not given) [KETOROLAC TROMETHAMINE]
Compound NOT metabolized	O=C1[C@H](CC[C@H](O)c2ccc(F)cc2)[C@@H](c2ccc(O)cc2)N1c1ccc(F)cc1 [EZETIMIBE]
Compound metabolized	CCN(CC)CCNC(C(=O)OCCC(C)C)c1ccccc1.Cl.Cl (stereo not given)

Experiment: as §1, with “Z-017” for “WLS-220”, “mouse” for “human”, “ERS12561816” for “ERS12561769”
Conditions: 2 µM

Bacterial Biotransformation	SMILES
Compound NOT metabolized	CN1C(C(=O)Nc2ccccn2)=C(O)c2sccc2S1(=O)=O [TENOXICAM]
Compound NOT metabolized	NC(CO)(CO)CO.O=C(c1ccccc1)c1ccc2n1CCC2C(=O)O (stereo not given) [KETOROLAC TROMETHAMINE]
Compound NOT metabolized	O=C1[C@H](CC[C@H](O)c2ccc(F)cc2)[C@@H](c2ccc(O)cc2)N1c1ccc(F)cc1 [EZETIMIBE]
Compound NOT metabolized	CCN(CC)CCNC(C(=O)OCCC(C)C)c1ccccc1.Cl.Cl (stereo not given)

Conditions: human gut metagenome, 24 h, 2 µM
Remark: another data set of the same source

Bacterial Biotransformation	SMILES
Compound NOT metabolized	CN1C(C(=O)Nc2ccccn2)=C(O)c2sccc2S1(=O)=O [TENOXICAM]
Compound metabolized	NC(CO)(CO)CO.O=C(c1ccccc1)c1ccc2n1CCC2C(=O)O (stereo not given) [KETOROLAC TROMETHAMINE]
Compound NOT metabolized	O=C1[C@H](CC[C@H](O)c2ccc(F)cc2)[C@@H](c2ccc(O)cc2)N1c1ccc(F)cc1 [EZETIMIBE]
Compound NOT metabolized	CCN(CC)CCNC(C(=O)OCCC(C)C)c1ccccc1.Cl.Cl (stereo not given)

Conditions: human gut metagenome, 24 h, 2 µM
Remark: another data set of the same source

Bacterial Biotransformation	SMILES
Compound NOT metabolized	CN1C(C(=O)Nc2ccccn2)=C(O)c2sccc2S1(=O)=O [TENOXICAM]
Compound metabolized	NC(CO)(CO)CO.O=C(c1ccccc1)c1ccc2n1CCC2C(=O)O (stereo not given) [KETOROLAC TROMETHAMINE]
Compound metabolized	O=C1[C@H](CC[C@H](O)c2ccc(F)cc2)[C@@H](c2ccc(O)cc2)N1c1ccc(F)cc1 [EZETIMIBE]
Compound metabolized	CCN(CC)CCNC(C(=O)OCCC(C)C)c1ccccc1.Cl.Cl (stereo not given)

Conditions: human gut metagenome, 24 h, 2 µM
Remark: another data set of the same source

Bacterial Biotransformation	SMILES
Compound NOT metabolized	CN1C(C(=O)Nc2ccccn2)=C(O)c2sccc2S1(=O)=O [TENOXICAM]
Compound metabolized	NC(CO)(CO)CO.O=C(c1ccccc1)c1ccc2n1CCC2C(=O)O (stereo not given) [KETOROLAC TROMETHAMINE]
Compound NOT metabolized	O=C1[C@H](CC[C@H](O)c2ccc(F)cc2)[C@@H](c2ccc(O)cc2)N1c1ccc(F)cc1 [EZETIMIBE]
Compound NOT metabolized	CCN(CC)CCNC(C(=O)OCCC(C)C)c1ccccc1.Cl.Cl (stereo not given)

Experiment: as §1, with “Z-004” for “WLS-220”, “to” for “to human gut”, “ERS12561804” for “ERS12561769”
Conditions: 2 µM

Bacterial Biotransformation	SMILES
Compound NOT metabolized	CN1C(C(=O)Nc2ccccn2)=C(O)c2sccc2S1(=O)=O [TENOXICAM]
Compound NOT metabolized	NC(CO)(CO)CO.O=C(c1ccccc1)c1ccc2n1CCC2C(=O)O (stereo not given) [KETOROLAC TROMETHAMINE]
Compound NOT metabolized	O=C1[C@H](CC[C@H](O)c2ccc(F)cc2)[C@@H](c2ccc(O)cc2)N1c1ccc(F)cc1 [EZETIMIBE]
Compound NOT metabolized	CCN(CC)CCNC(C(=O)OCCC(C)C)c1ccccc1.Cl.Cl (stereo not given)

Conditions: human gut metagenome, 24 h, 2 µM
Remark: another data set of the same source

Bacterial Biotransformation	SMILES
Compound NOT metabolized	CN1C(C(=O)Nc2ccccn2)=C(O)c2sccc2S1(=O)=O [TENOXICAM]
Compound metabolized	NC(CO)(CO)CO.O=C(c1ccccc1)c1ccc2n1CCC2C(=O)O (stereo not given) [KETOROLAC TROMETHAMINE]
Compound NOT metabolized	O=C1[C@H](CC[C@H](O)c2ccc(F)cc2)[C@@H](c2ccc(O)cc2)N1c1ccc(F)cc1 [EZETIMIBE]
Compound metabolized	CCN(CC)CCNC(C(=O)OCCC(C)C)c1ccccc1.Cl.Cl (stereo not given)

From ChEMBL document CHEMBL5724914, “Linking interpersonal differences in gut microbiota composition and drug biotransformation activity” (2024)
